Assay results as given in article PMC11724075, “Small-molecule-induced ERBB4 activation to treat heart failure” (Nature Communications, 2025).
Several values for one entry are separate records, joined by “and”; a condition that tells them apart may be missing. Equal entries are not always repeated. Values belong to the molecule of their own block, whether it stands above or below them.

Legend:
[1] = biological target: T1, ERBB4 receptor (Homo sapiens, UniProt Q15303); assay: Fluorescence-based competition binding assay with F-NRG1 (flow cytometry) on U2OS ERBB4/ERBB4 cells; details: for Fluorescence-based competition assay with NRG1 and EF-1 (normalized signal): individual replicates
T1 construct: host or cells: U2OS (osteosarcoma cells), PathHunter engineered line
T1 sequence (Q15303 26-1308): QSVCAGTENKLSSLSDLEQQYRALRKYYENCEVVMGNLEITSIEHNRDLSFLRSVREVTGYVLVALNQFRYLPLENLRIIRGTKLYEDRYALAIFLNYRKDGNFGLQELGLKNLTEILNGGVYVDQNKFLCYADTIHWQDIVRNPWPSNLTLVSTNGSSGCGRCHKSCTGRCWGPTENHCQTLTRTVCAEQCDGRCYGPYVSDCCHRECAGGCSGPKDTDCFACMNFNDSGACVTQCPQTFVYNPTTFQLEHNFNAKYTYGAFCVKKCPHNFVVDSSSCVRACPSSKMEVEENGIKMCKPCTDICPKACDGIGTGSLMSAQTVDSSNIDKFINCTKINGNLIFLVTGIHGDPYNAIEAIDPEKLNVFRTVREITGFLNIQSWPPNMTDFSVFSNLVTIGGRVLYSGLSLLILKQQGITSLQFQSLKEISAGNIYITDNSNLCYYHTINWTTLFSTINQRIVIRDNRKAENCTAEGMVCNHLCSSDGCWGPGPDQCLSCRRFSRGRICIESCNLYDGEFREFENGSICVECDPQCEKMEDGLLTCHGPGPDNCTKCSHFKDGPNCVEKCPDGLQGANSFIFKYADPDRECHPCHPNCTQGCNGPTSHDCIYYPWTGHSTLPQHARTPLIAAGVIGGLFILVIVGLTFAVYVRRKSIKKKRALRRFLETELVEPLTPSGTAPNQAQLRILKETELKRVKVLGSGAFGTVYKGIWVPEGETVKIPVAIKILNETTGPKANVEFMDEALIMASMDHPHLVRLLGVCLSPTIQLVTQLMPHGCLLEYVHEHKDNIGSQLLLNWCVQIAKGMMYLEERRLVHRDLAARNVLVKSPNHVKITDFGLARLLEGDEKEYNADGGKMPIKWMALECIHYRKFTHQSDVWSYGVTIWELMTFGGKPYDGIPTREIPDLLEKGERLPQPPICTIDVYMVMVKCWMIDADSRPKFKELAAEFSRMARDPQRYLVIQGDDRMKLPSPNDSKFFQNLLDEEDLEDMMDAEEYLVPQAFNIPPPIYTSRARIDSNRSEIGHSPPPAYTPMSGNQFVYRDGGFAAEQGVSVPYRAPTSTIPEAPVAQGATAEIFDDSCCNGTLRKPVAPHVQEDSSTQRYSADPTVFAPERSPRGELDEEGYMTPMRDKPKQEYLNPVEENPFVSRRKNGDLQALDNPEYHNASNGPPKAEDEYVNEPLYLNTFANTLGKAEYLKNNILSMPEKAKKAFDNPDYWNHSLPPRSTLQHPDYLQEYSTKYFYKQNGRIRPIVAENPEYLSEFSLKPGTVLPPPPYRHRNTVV
T1 sequence (Q15303 26-1308): as above
Experimental: NRG1 was dissolved in PBS at a concentration of 1 mg/mL and labeled with Alexa Fluor 488 using the Alexa Fluor 488 microscale protein labeling kit (Thermo Fisher Scientific, A30006). A Bio-gel P-4 (Bio-Rad, 1504124) fine resin suspended in PBS and a dye:protein molar ratio of 5 was used to purify the labeled NRG1 according to the manufacturer’s instructions. Fluorescent labeling was evaluated by performing a dose-response experiment using F-NRG1 (1–1000 nM) on the U2OS ERBB4/ERBB4 dimerization cell line. Next, the same cell line was used to perform a competition binding assay with F-NRG1 using flow cytometry. Cells were plated in transparent U-bottom 96-well plates (Greiner Bio-One, M9436) at 5 × 10^5 cells/mL in 50 μL ice-cold buffer (PBS with 0.1% bovine serum albumin (BSA; Sigma-Aldrich, A7906) and 0.05% sodium azide (Sigma-Aldrich, S2002)). Next, cells were centrifuged at 17,968 × g for 4 min at RT and the supernatants were discarded. The cell pellets were washed with 50 μL ice-cold buffer by gently pipetting up and down. Centrifugation and washing were repeated, and the supernatants were discarded. For the competition assay between NRG1 and F-NRG1, cells were treated with NRG1 (1–100 nM) and F-NRG1 (30 nM). […] After gentle mixing of each sample, the plate was incubated for 1 h at 4 °C on a microplate shaker. Next, the plate was centrifuged at 17,968 × g for 4 min at RT and the supernatants were discarded. The cells were then washed with 100 μL ice-cold buffer, pelleted by centrifugation and washed again. The supernatants were discarded and 100 μL ice-cold buffer was added to the cell pellets and pipetted up and down to generate single-cell suspensions. These suspensions were transferred to 5-mL polystyrene round-bottom tubes, kept on ice, and exposed to minimum light until flow cytometric analysis (BD Accuri C6, BD Biosciences). Unstained cells were used to set the parameters of the flow cytometer.
Supplementary Figure 3. Receptor binding assay. (a) Fluorescence-based competition assay between […]
The Y-axis represents the […]
percentage of specific binding of F-NRG1, the x-axis represents the molar concentration of unlabeled […]
(b) DRC showing t he effect of NRG1 (full line with full circle) on the […]
1x10-6 M NRG1; n=5 biological replicates for NRG1 + EF -1 10 µM for all concentrations of NRG1, except […]
concentrations of NRG1, except n=2 for 3x10-7 M and 1x10-6 M NRG1). All data are presented as mean ± SD. Source data are provided as a Source Data file . CPD, compound; DRC; dose response curve; FC, fold change; F-NRG1, fluorescent ly labeled NRG1; M, molar concentration; NRG1, neuregulin-1; Veh, […]

[2] = system: mouse model of AngII-induced myocardial fibrosis; assay: AngII-induced myocardial fibrosis mouse model, 4 weeks, echocardiography, wild-type mice; assay type: in vivo
Experimental: Four weeks after implantation, cardiac ultrasound was performed, mice were euthanized, and hearts were collected. A similar set-up was used for the 1-week study (Alzet, model 1007D) in male mice (n = 9-10 mice in every group).
Echocardiography was performed using the Vevo F2-LAZRX (FUJIFILM VisualSonics) and UHF57x probe. Mice were anesthetized with 1.5% isoflurane (Alvira, BE-V512222). Parasternal long-axis B-mode images and M-mode images were obtained and analyzed using VevoLAB software (FUJIFILM VisualSonics, Version 5.7.1). For the AngII experiments, measurements were obtained through analysis of the short-axis M-mode. For the MI experiments, measurements were obtained through analysis of the parasternal long-axis B-mode, of which the area and end-volume of the left ventricular cavity in diastole and systole were determined by tracing the endocardial border. Acquisitions, measurements and analyses were performed blinded.
Supplementary Table 2. Echocardiographic parameters. Echocardiographic parameters obtained through the analysis of the M-mode short-axis views. (a) Male and (b) female wild-type mice treated […]
mice in EF-1 group). (c) Male wild-type mice treated with AngII and NA-1 (n=5 male mice in Ctrl and AngII/Veh group, n=4 male mice in AngII/NA -1 group). (d) Comparison between wild-type and Erbb4-null mice (n=10 male and female wild -type mice and n=6 male and female Erbb4-null mice). (e) Male […]
Echocardiographic parameters obtained through left ventricular trace analysis of the parasternal long-axis obtained in B-mode in female wild-type mice that underwent a sham or MI operation: mice with […]
in MI/EF-1 group). (g) Echocardiographic parameters obtained through left ventricular trace analysis of the parasternal long-axis obtained in B-mode in male wild-type mice that underwent a sham or MI […]
male mice in MI/Veh group for T2 and T4). Echocardiographic parameters were measured weekly (indicated by ‘T’). All data are presented as mean (value of individual mice) ± SD, two-tailed unpaired […]
1 groups. Source data are provided as a Source Data file. AngII, angiotensin II; ANOVA, analysis of variance; Ctrl, control; DOX, doxorubicin; EF, ejection fraction; ERBB4, erythroblastic leukemia viral oncogene homolog 4; FS, fractional shortening; IVSd, interventricular septum thickness in diastole; IVSs, interventricular septum thickness in systole; LVIDd, left ventricular internal diameter in diastole; LVIDs, left ventricular internal diameter in systole; LVPWd, left ventricular posterior wall thickness in diastole; LVPWs, left ventricular posterior wall thickness in systole; MI, myocardial infarction; NA, non-activating pharmacophore-containing compound; SD, standard variation; Veh, vehicle.

[3] = Female wild-type mice, AngII/EF-1
[4] = Male wild-type mice, AngII/EF-1
[5] = Male wild-type mice, EF-1 without AngII
[6] = female wild-type mice, AngII/EF-1, 4 weeks, mean ± SD
[7] = male wild-type mice, AngII + compound 2 mg/kg/day, 4 weeks, mean ± SD
[8] = male wild-type mice, EF-1 group without AngII, 4 weeks, mean ± SD
[9] = Male wild-type mice, AngII/NA-1

Molecule: O=C(NC1CC1)C(Sc1nc2ccccc2c(=O)n1C1CCCC1)c1ccccc1 (stereo not shown) [EF-1]
competition with F-NRG1 binding (in words) ([1]; EF-1 0.1–100 μM, 30 nM F-NRG1): did not reduce binding of F-NRG1
Fluorescence-based competition assay with NRG1 and EF-1 (normalized signal) ([1]; concentration 100 pM): 100
Fluorescence-based competition assay with NRG1 and EF-1 (normalized signal) ([1]; concentration 1e-7 M): 100 and 98 and 104
Fluorescence-based competition assay with NRG1 and EF-1 (normalized signal) ([1]; concentration 1e-6 M): 102 and 93 and 105
Fluorescence-based competition assay with NRG1 and EF-1 (normalized signal) ([1]; concentration 1e-5 M): 98 (2×) and 92
Fluorescence-based competition assay with NRG1 and EF-1 (normalized signal) ([1]; concentration 0.0001 M): 94 (2×) and 95
effect on cardiac dimensions on ultrasound (in words) ([2]; AngII model, both sexes): did not significantly alter cardiac dimensions
FS [2, 3]: 11.5 ± 5.5%
IVSd [2, 3]: 0.53 ± 0.07 mm
IVSs [2, 3]: 0.7 ± 0.1 mm
LVIDd [2, 3]: 4.2 ± 0.3 mm
LVIDs [2, 3]: 3.7 ± 0.4 mm
LVPWd [2, 3]: 0.5 ± 0.1 mm
LVPWs [2, 3]: 0.6 ± 0.1 mm
FS [2, 4]: 16.6 ± 3.6%
IVSd [2, 4]: 0.8 ± 0.1 mm
IVSs [2, 4]: 1.1 ± 0.2 mm
LVIDd [2, 4]: 4.4 ± 0.3 mm
LVIDs [2, 4]: 3.7 ± 0.4 mm
LVPWd [2, 4]: 0.8 ± 0.2 mm
LVPWs [2, 4]: 0.9 ± 0.2 mm
FS [2, 5]: 18.5 ± 5.1%
IVSd [2, 5]: 0.9 ± 0.1 mm
IVSs [2, 5]: 1.2 ± 0.1 mm
LVIDd [2, 5]: 4.2 ± 0.3 mm
LVIDs [2, 5]: 3.4 ± 0.3 mm
LVPWd [2, 5]: 0.75 ± 0.03 mm
LVPWs [2, 5]: 0.9 ± 0.1 mm
FS [2, 6]: 11.5 ± 5.5%
IVSd [2, 6]: 0.53 ± 0.07 mm
IVSs [2, 6]: 0.7 ± 0.1 mm
LVIDd [2, 6]: 4.2 ± 0.3 mm
LVIDs [2, 6]: 3.7 ± 0.4 mm
LVPWd [2, 6]: 0.5 ± 0.1 mm
LVPWs [2, 6]: 0.6 ± 0.1 mm
FS [2, 7]: 16.6 ± 3.6%
IVSd [2, 7]: 0.8 ± 0.1 mm
IVSs [2, 7]: 1.1 ± 0.2 mm
LVIDd [2, 7]: 4.4 ± 0.3 mm
LVIDs [2, 7]: 3.7 ± 0.4 mm
LVPWd [2, 7]: 0.8 ± 0.2 mm
LVPWs [2, 7]: 0.9 ± 0.2 mm
FS [2, 8]: 18.5 ± 5.1%
IVSd [2, 8]: 0.9 ± 0.1 mm
IVSs [2, 8]: 1.2 ± 0.1 mm
LVIDd [2, 8]: 4.2 ± 0.3 mm
LVIDs [2, 8]: 3.4 ± 0.3 mm
LVPWd [2, 8]: 0.75 ± 0.03 mm
LVPWs [2, 8]: 0.9 ± 0.1 mm

Molecule: Cc1sc2nc(SC(C)C(=O)NCc3ccc4c(c3)OCO4)n(-c3ccccc3)c(=O)c2c1C (stereo not shown) [NA-1]
FS [2, 9]: 18.1 ± 5.1%
IVSd [2, 9]: 1.0 ± 0.2 mm
IVSs [2, 9]: 1.4 ± 0.2 mm
LVIDd [2, 9]: 4.3 ± 0.7 mm
LVIDs [2, 9]: 3.5 ± 0.7 mm
LVPWd [2, 9]: 0.9 ± 0.1 mm
LVPWs [2, 9]: 1.1 ± 0.3 mm
FS [2, 7]: 18.1 ± 5.1%
IVSd [2, 7]: 1.0 ± 0.2 mm
IVSs [2, 7]: 1.4 ± 0.2 mm
LVIDd [2, 7]: 4.3 ± 0.7 mm
LVIDs [2, 7]: 3.5 ± 0.7 mm
LVPWd [2, 7]: 0.9 ± 0.1 mm
LVPWs [2, 7]: 1.1 ± 0.3 mm

IC50 ([1]; 30 nM F-NRG1, U2OS ERBB4/ERBB4 cells, read-out: IC50, reduction of binding of fluorescent NRG1 (F-NRG1) to the ERBB4 receptor): 32 nM
Fluorescence-based competition assay with NRG1 and EF-1 (normalized signal) ([1]; concentration 100 pM): 100
Fluorescence-based competition assay with NRG1 and EF-1 (normalized signal) ([1]; concentration 9e-8 M): 47.1877 and 5.376 and 43.6793
Fluorescence-based competition assay with NRG1 and EF-1 (normalized signal) ([1]; concentration 1e-7 M): 0
Molecule: neuregulin-1 [NRG1]
Fluorescence-based competition assay with NRG1 and EF-1 (normalized signal) ([1]; concentration 1e-9 M): 68.5222 and 84.1596 and 93.8458 and 74.5974 and 128.088 and 100
Fluorescence-based competition assay with NRG1 and EF-1 (normalized signal) ([1]; concentration 3e-9 M): 80.2455 and 83.5978 and 102.302 and 89.9396 and 83.9805 and 87.652
Fluorescence-based competition assay with NRG1 and EF-1 (normalized signal) ([1]; concentration 1e-8 M): 67.9682 and 69.1706 and 85.6667 and 81.6967
Fluorescence-based competition assay with NRG1 and EF-1 (normalized signal) ([1]; concentration 3e-8 M): 77.0259 and 43.4293 and 100.206 and 81.3756 and 87.2588 and 82.6252 and 67.1018 and 62.6829 and 44.3344 and 108.803
Fluorescence-based competition assay with NRG1 and EF-1 (normalized signal) ([1]; concentration 5e-8 M): 65.1587 and 61.7658 and 51.2875 and 66.8315
Fluorescence-based competition assay with NRG1 and EF-1 (normalized signal) ([1]; concentration 7.5e-8 M): 7.1162 and 78.7156 and 54.3916 and 66.0513 and 10.1361 and 60.285 and -8.7833 and 64.1512
